± gives the expanded uncertainty stated by the source.
Experiments:
[1] = Liquid; for viscosity: Capillary tube (Ostwald / Ubbelohde) method; for mass density: Siemens Coriolis flowmeter
[2] = xn = mol fraction of the nth substance listed; details: Liquid, x2 = 0; for viscosity: Capillary tube (Ostwald / Ubbelohde) method; for mass density: Siemens Coriolis flowmeter

Compound: CCCCCCC [heptane]
- viscosity ([1]; 298.15 K, 100 kPa): 0.404 ± 0.013 mPa·s
- mass density ([1]; 298.15 K, 100 kPa): 680 ± 2 kg/m3
- viscosity ([1]; 298.15 K, 3000 kPa): 0.415 ± 0.013 mPa·s
- mass density ([1]; 298.15 K, 3000 kPa): 683 ± 2 kg/m3
- viscosity ([1]; 298.15 K, 6000 kPa): 0.42 ± 0.013 mPa·s
- mass density ([1]; 298.15 K, 6000 kPa): 686 ± 2 kg/m3
- viscosity ([1]; 298.15 K, 9000 kPa): 0.432 ± 0.013 mPa·s
- mass density ([1]; 298.15 K, 9000 kPa): 689 ± 2 kg/m3
- viscosity ([1]; 298.15 K, 12000 kPa): 0.446 ± 0.014 mPa·s
- mass density ([1]; 298.15 K, 12000 kPa): 691 ± 2 kg/m3
- viscosity ([1]; 298.15 K, 15000 kPa): 0.454 ± 0.014 mPa·s
- mass density ([1]; 298.15 K, 15000 kPa): 694 ± 2 kg/m3
- viscosity ([1]; 308.15 K, 100 kPa): 0.367 ± 0.011 mPa·s
- mass density ([1]; 308.15 K, 100 kPa): 670 ± 2 kg/m3
- viscosity ([1]; 308.15 K, 3000 kPa): 0.371 ± 0.012 mPa·s
- mass density ([1]; 308.15 K, 3000 kPa): 674 ± 2 kg/m3
- viscosity ([1]; 308.15 K, 6000 kPa): 0.385 ± 0.012 mPa·s
- mass density ([1]; 308.15 K, 6000 kPa): 677 ± 2 kg/m3
- viscosity ([1]; 308.15 K, 9000 kPa): 0.396 ± 0.012 mPa·s
- mass density ([1]; 308.15 K, 9000 kPa): 680 ± 2 kg/m3
- viscosity ([1]; 308.15 K, 12000 kPa): 0.404 ± 0.013 mPa·s
- mass density ([1]; 308.15 K, 12000 kPa): 683 ± 2 kg/m3
- viscosity ([1]; 308.15 K, 15000 kPa): 0.411 ± 0.013 mPa·s
- mass density ([1]; 308.15 K, 15000 kPa): 685 ± 2 kg/m3
- viscosity ([1]; 318.15 K, 100 kPa): 0.33 ± 0.01 mPa·s
- mass density ([1]; 318.15 K, 100 kPa): 662 ± 2 kg/m3
- viscosity ([1]; 318.15 K, 3000 kPa): 0.339 ± 0.011 mPa·s
- mass density ([1]; 318.15 K, 3000 kPa): 666 ± 2 kg/m3
- viscosity ([1]; 318.15 K, 6000 kPa): 0.347 ± 0.011 mPa·s
- mass density ([1]; 318.15 K, 6000 kPa): 669 ± 2 kg/m3
- viscosity ([1]; 318.15 K, 9000 kPa): 0.359 ± 0.011 mPa·s
- mass density ([1]; 318.15 K, 9000 kPa): 672 ± 2 kg/m3
- viscosity ([1]; 318.15 K, 12000 kPa): 0.369 ± 0.012 mPa·s
- mass density ([1]; 318.15 K, 12000 kPa): 675 ± 2 kg/m3
- viscosity ([1]; 318.15 K, 15000 kPa): 0.374 ± 0.012 mPa·s
- mass density ([1]; 318.15 K, 15000 kPa): 678 ± 2 kg/m3

Compound: CCCCCCC [heptane] + CCCCCCCCCC(=O)OC
- viscosity ([2]; 298.15 K, 100 kPa): 0.404 ± 0.013 mPa·s
- mass density ([2]; 298.15 K, 100 kPa): 680 ± 2 kg/m3
- viscosity ([2]; 298.15 K, 3000 kPa): 0.415 ± 0.013 mPa·s
- mass density ([2]; 298.15 K, 3000 kPa): 683 ± 2 kg/m3
- viscosity ([2]; 298.15 K, 6000 kPa): 0.42 ± 0.013 mPa·s
- mass density ([2]; 298.15 K, 6000 kPa): 686 ± 2 kg/m3
- viscosity ([2]; 298.15 K, 9000 kPa): 0.432 ± 0.013 mPa·s
- mass density ([2]; 298.15 K, 9000 kPa): 689 ± 2 kg/m3
- viscosity ([2]; 298.15 K, 12000 kPa): 0.446 ± 0.014 mPa·s
- mass density ([2]; 298.15 K, 12000 kPa): 691 ± 2 kg/m3
- viscosity ([2]; 298.15 K, 15000 kPa): 0.454 ± 0.014 mPa·s
- mass density ([2]; 298.15 K, 15000 kPa): 694 ± 2 kg/m3
- viscosity ([2]; 308.15 K, 100 kPa): 0.367 ± 0.011 mPa·s
- mass density ([2]; 308.15 K, 100 kPa): 670 ± 2 kg/m3
- viscosity ([2]; 308.15 K, 3000 kPa): 0.371 ± 0.012 mPa·s
- mass density ([2]; 308.15 K, 3000 kPa): 674 ± 2 kg/m3
- viscosity ([2]; 308.15 K, 6000 kPa): 0.385 ± 0.012 mPa·s
- mass density ([2]; 308.15 K, 6000 kPa): 677 ± 2 kg/m3
- viscosity ([2]; 308.15 K, 9000 kPa): 0.396 ± 0.012 mPa·s
- mass density ([2]; 308.15 K, 9000 kPa): 680 ± 2 kg/m3
- viscosity ([2]; 308.15 K, 12000 kPa): 0.404 ± 0.013 mPa·s
- mass density ([2]; 308.15 K, 12000 kPa): 683 ± 2 kg/m3
- viscosity ([2]; 308.15 K, 15000 kPa): 0.411 ± 0.013 mPa·s
- mass density ([2]; 308.15 K, 15000 kPa): 685 ± 2 kg/m3
- viscosity ([2]; 318.15 K, 100 kPa): 0.33 ± 0.01 mPa·s
- mass density ([2]; 318.15 K, 100 kPa): 662 ± 2 kg/m3
- viscosity ([2]; 318.15 K, 3000 kPa): 0.339 ± 0.011 mPa·s
- mass density ([2]; 318.15 K, 3000 kPa): 666 ± 2 kg/m3
- viscosity ([2]; 318.15 K, 6000 kPa): 0.347 ± 0.011 mPa·s
- mass density ([2]; 318.15 K, 6000 kPa): 669 ± 2 kg/m3
- viscosity ([2]; 318.15 K, 9000 kPa): 0.359 ± 0.011 mPa·s
- mass density ([2]; 318.15 K, 9000 kPa): 672 ± 2 kg/m3
- viscosity ([2]; 318.15 K, 12000 kPa): 0.369 ± 0.012 mPa·s
- mass density ([2]; 318.15 K, 12000 kPa): 675 ± 2 kg/m3
- viscosity ([2]; 318.15 K, 15000 kPa): 0.374 ± 0.012 mPa·s
- mass density ([2]; 318.15 K, 15000 kPa): 678 ± 2 kg/m3

Compound: CCCCCCCCCC(=O)OC [methyl decanoate]
- viscosity ([1]; 298.15 K, 100 kPa): 1.934 ± 0.06 mPa·s
- mass density ([1]; 298.15 K, 100 kPa): 868 ± 2 kg/m3
- viscosity ([1]; 298.15 K, 3000 kPa): 1.992 ± 0.061 mPa·s
- mass density ([1]; 298.15 K, 3000 kPa): 870 ± 2 kg/m3
- viscosity ([1]; 298.15 K, 6000 kPa): 2.058 ± 0.064 mPa·s
- mass density ([1]; 298.15 K, 6000 kPa): 872 ± 2 kg/m3
- viscosity ([1]; 298.15 K, 9000 kPa): 2.123 ± 0.066 mPa·s
- mass density ([1]; 298.15 K, 9000 kPa): 874 ± 2 kg/m3
- viscosity ([1]; 298.15 K, 12000 kPa): 2.209 ± 0.068 mPa·s
- mass density ([1]; 298.15 K, 12000 kPa): 877 ± 2 kg/m3
- viscosity ([1]; 298.15 K, 15000 kPa): 2.272 ± 0.07 mPa·s
- mass density ([1]; 298.15 K, 15000 kPa): 878 ± 2 kg/m3
- viscosity ([1]; 308.15 K, 100 kPa): 1.628 ± 0.05 mPa·s
- mass density ([1]; 308.15 K, 100 kPa): 860 ± 2 kg/m3
- viscosity ([1]; 308.15 K, 3010 kPa): 1.675 ± 0.052 mPa·s
- mass density ([1]; 308.15 K, 3010 kPa): 862 ± 2 kg/m3
- viscosity ([1]; 308.15 K, 6000 kPa): 1.727 ± 0.053 mPa·s
- mass density ([1]; 308.15 K, 6000 kPa): 864 ± 2 kg/m3
- viscosity ([1]; 308.15 K, 9000 kPa): 1.779 ± 0.055 mPa·s
- mass density ([1]; 308.15 K, 9000 kPa): 866 ± 2 kg/m3
- viscosity ([1]; 308.15 K, 12000 kPa): 1.835 ± 0.057 mPa·s
- mass density ([1]; 308.15 K, 12000 kPa): 869 ± 2 kg/m3
- viscosity ([1]; 308.15 K, 15000 kPa): 1.888 ± 0.058 mPa·s
- mass density ([1]; 308.15 K, 15000 kPa): 871 ± 2 kg/m3
- viscosity ([1]; 318.15 K, 100 kPa): 1.38 ± 0.043 mPa·s
- mass density ([1]; 318.15 K, 100 kPa): 853 ± 2 kg/m3
- viscosity ([1]; 318.15 K, 3000 kPa): 1.417 ± 0.044 mPa·s
- mass density ([1]; 318.15 K, 3000 kPa): 854 ± 2 kg/m3
- viscosity ([1]; 318.15 K, 6000 kPa): 1.462 ± 0.045 mPa·s
- mass density ([1]; 318.15 K, 6000 kPa): 856 ± 2 kg/m3
- viscosity ([1]; 318.15 K, 9000 kPa): 1.491 ± 0.046 mPa·s
- mass density ([1]; 318.15 K, 9000 kPa): 859 ± 2 kg/m3
- viscosity ([1]; 318.15 K, 12000 kPa): 1.534 ± 0.047 mPa·s
- mass density ([1]; 318.15 K, 12000 kPa): 861 ± 2 kg/m3
- viscosity ([1]; 318.15 K, 15000 kPa): 1.578 ± 0.049 mPa·s
- mass density ([1]; 318.15 K, 15000 kPa): 863 ± 2 kg/m3
